Data: patent US20250163061A1 (Bala Therapeutics, Inc., priority 2021, published 2025)

Tests used:
recombinant MEN1 protein = recombinant MEN1 protein (Homo sapiens (Human), UniProt O00255); assay: Primary fluorescence polarization assay of MEN1 activity inhibition (MEN1 / MLL4-43 peptide interaction); format: binding; details: MEN1 10 nM, fluorescein-labeled MLL4-43 peptide 0.5 nM
Method: Compound activity was determined using recombinant MEN1 protein (Creativebiomart, Cat #MEN1-35H) and a custom fluorescein-labeled MLL4-43 peptide (Eton Bioscience Inc.). Interaction between MEN1 and MLL4-43 in the presence of compounds was determined by fluorescence polarization assay using a Microplate Reader ClarioStar Plus. The reaction was carried out in assay buffer (50 mM TRIS-HCl pH 7.4-7.6, 50 mM NaCl, 1 mM DTT, 0.1 mg/ml BSA). The compounds were dispensed on a 384 well Diamond Well Plate (Axigen, Cat #P-384-120SQ-C-S) using the Biomek FX liquid handling system at 100× solutions of compounds in DMSO. 2×MEN1 mix (final concentration of MEN1 10 nM) was prepared in Assay buffer and 10 μl of mixture per well was added into 384 w white Reaction plate with NBS (Corning, Cat #4513). 10 μl of Assay buffer w/o MEN1 was used for negative control. Plates were centrifuged for 1 min at 100 g. Next step the Compounds were added to Reaction plate using Biomek station via following steps: 3 μl of 100× compounds (in DMSO) were mixed thoroughly with 27 μl Assay Buffer, then 2 μl of this mixture was added to Reaction plate with 10 μl of MEN1 mix. Plates were centrifuged for 1 min at 100 g and incubated for 20 min at room temperature. Next 8 μL of MLL4-43 peptide per well was added to final concentration of MLL 0.5 nM. Plates were incubated for 1 hour at room temperature. Then fluorescence polarization was measured using Microplate Reader.

MV4-11 = MV4-11 cellular growth inhibition assay (CellTiter-Glo); format: cell-based; details: Homo sapiens, 168 h, MV4-11 cells, 7 days of incubation
Method: (§1) HEK293 (Institute of Cytology Russian Academy of Science), MV4-11 (ATCC, CRL-9591), MOLM-13 (AcceGen, ABC-TC517S) were seeded at a density of 500 cells per well (HEK293) and 2000 cells per well (MV4-11, MOLM-13) in a 384-well clear bottom plate (Greiner Cat #781090) in 45 μl total volume of DMEM (PanEco, Cat #C420, Russia) or RPMI (PanEco, Cat #C330, Russia) with 10% FBS (HyClone Cat #SV30160.03). HEK293 were allowed to adhere overnight at 37° C., 5% CO2. 500× compounds solutions in DMSO (Sigma Cat #D2650) were prepared into Cmpnds plate (Diamond Well Plate, Axigen, Cat #P-384-120SQ-C-S) and DMSO only control was included. 1 μl of 500× compounds (Cmpnds plate) was added to 49 μl of culture medium into Dilution plate (Diamond Well Plate, Axigen, Cat #P-384-120SQ-C-S), mixed and then 5 μl of 10× compounds solutions were transferred to cells followed by centrifugation at 100 g for 1 min. Final DMSO concentration was 0.2%. After 3 days of incubation, 10 μl of 1× compounds were added to cells. After 7 days of incubation, 12 μl of CellTiter-Glo (Promega, CAT #G7572) were added to the cells, plate was centrifuged at 100 g for 1 min and luminescence signal was measured using Microplate Reader (CLARIOStar).

MOLM-13 = MOLM-13 cellular growth inhibition assay (CellTiter-Glo); format: cell-based; details: Homo sapiens, 168 h, MOLM-13 cells, 7 days of incubation
Method: as §1

[1] = HEK293 cellular growth inhibition assay (CellTiter-Glo); format: cell-based; details: human, HEK293 cells, 7 days of incubation
Method: as §1

recombinant MEN1 protein, sequence (O00255 whole entry): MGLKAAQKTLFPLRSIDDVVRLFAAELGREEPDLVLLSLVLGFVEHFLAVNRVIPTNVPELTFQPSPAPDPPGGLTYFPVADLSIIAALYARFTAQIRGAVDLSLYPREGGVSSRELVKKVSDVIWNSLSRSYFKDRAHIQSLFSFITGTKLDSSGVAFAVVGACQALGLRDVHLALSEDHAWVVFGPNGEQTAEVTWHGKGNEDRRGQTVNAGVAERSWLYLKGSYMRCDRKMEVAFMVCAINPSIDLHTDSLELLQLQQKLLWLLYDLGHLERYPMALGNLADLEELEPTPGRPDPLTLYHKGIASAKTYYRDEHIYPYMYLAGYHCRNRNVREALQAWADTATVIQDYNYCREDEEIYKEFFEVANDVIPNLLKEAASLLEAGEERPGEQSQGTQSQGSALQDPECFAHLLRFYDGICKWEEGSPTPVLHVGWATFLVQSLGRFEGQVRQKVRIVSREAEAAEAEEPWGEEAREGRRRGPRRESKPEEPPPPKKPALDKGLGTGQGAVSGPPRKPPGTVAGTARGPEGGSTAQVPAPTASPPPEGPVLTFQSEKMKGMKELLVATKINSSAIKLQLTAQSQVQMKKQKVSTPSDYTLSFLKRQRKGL

Row | EC50 (recombinant MEN1 protein) | Structure (SMILES) | CC50 (MV4-11) | CC50 (MOLM-13) | CC50 at 7 days [1]
1 | 75 to 500 nM | Cc1c(CN2CCC3(CC2)CN(c2ncnc4ccc(CC(F)(F)F)cc24)C3)ccc2c1cc(C#N)n2CC1CN(CC(C)C)C(=O)CO1 (centres unmarked) [Compound 31, 1-[(4-Isobutyl-5-oxomorpholin-2-yl)methyl]-4-methyl-5-({2-[6-(2,2,2-trifluoroethyl)quinazolin-4-yl]-2,7-diazaspiro[3.5]non-7-yl}methyl)-1H-indole-2-carbonitrile] | – | – | –
2 | 75 to 500 nM | Cc1c(CN2CCC3(CC2)CN(c2ncnc4ccc(CC(F)(F)F)cc24)C3)ccc2c1cc(C#N)n2CC1CN(S(C)(=O)=O)CCO1 (centres unmarked) [Compound 9] | – | – | –
3 | 1000 to 5000 nM | Cc1c(CN2CCC3(CC2)CN(c2ncnc4ccc(CC(F)(F)F)cc24)C3)ccc2c1cc(C#N)n2CC1CNC(=O)N1 (centres unmarked) [Compound 6, 4-Methyl-1-[(2-oxoimidazolidin-4-yl)methyl]-5-({2-[6-(2,2,2-trifluoroethyl)quinazolin-4-yl]-2,7-diazaspiro[3.5]non-7-yl}methyl)-1H-indole-2-carbonitrile] | – | – | –
4 | 1000 to 5000 nM | Cc1c(CN2CCC3(CC2)CN(c2ncnc4ccc(CC(F)(F)F)cc24)C3)ccc2c1cc(C#N)n2CC1CN(C)C(=O)CN1 (centres unmarked) [Compound 46, 4-methyl-1-[(4-methyl-5-oxo-piperazin-2-yl)methyl]-5-[[2-[6-(2,2,2-trifluoroethyl)quinazolin-4-yl]-2,7-diazaspiro[3.5]nonan-7-yl]methyl]indole-2-carbonitrile] | – | – | –

The next lines start with the compound.

Row | Structure (SMILES) | EC50 (recombinant MEN1 protein) | CC50 (MV4-11) | CC50 (MOLM-13) | CC50 at 7 days [1]
5 | CCS(=O)(=O)N[C@H]1CC[C@H](Cn2c(C#N)cc3c(C)c(CN4CCC5(CC4)CN(c4ncnc6ccc(CC(F)(F)F)cc46)C5)ccc32)CC1 [Compound 41] | 75 to 500 nM | – | – | –
6 | CCS(=O)(=O)N1CCCN(C(C)Cn2c(C#N)cc3c(C)c(CN4CCC5(CC4)CN(c4ncnc6ccc(CC(F)(F)F)cc46)C5)ccc32)CC1 (centres unmarked) [Compound 53, 1-[2-(4-Ethylsulfonyl-1,4-diazepan-1-yl)propyl]-4-methyl-5-[[2-[6-(2,2,2-trifluoroethyl)quinazolin-4-yl]-2,7-diazaspiro[3.5]nonan-7-yl]methyl]indole-2-carbonitrile] | ≤ 75 nM | ≤ 100 nM | 100 to 500 nM | 5 to 10 µM
7 | Cc1c(CN2CCC3(CC2)CN(c2cnnc4ccc(CC(F)(F)F)cc24)C3)ccc2c1cc(C#N)n2CC(C)N1CCN(S(C)(=O)=O)CC1 (centres unmarked) [Compound 80, 4-Methyl-1-[2-(4-methylsulfonylpiperazin-1-yl)propyl]-5-[[2-[6-(2,2,2-trifluoroethyl)cinnolin-4-yl]-2,7-diazaspiro[3.5]nonan-7-yl]methyl]indole-2-carbonitrile] | ≤ 75 nM | 100 to 500 nM | 1000 to 5000 nM | 5 to 10 µM
8 | Cc1c(CN2CCC3(CC2)CN(c2ncnc4ccc(CC(F)(F)F)cc24)C3)ccc2c1cc(C#N)n2C[C@@H]1CCC(=O)N[C@H]1c1ccccc1 [Compound 100, 4-Methyl-1-{[(2R,3S)-6-oxo-2-phenylpiperidin-3-yl]methyl}-5-({2-[6-(2,2,2-trifluoroethyl)quinazolin-4-yl]-2,7-diazaspiro[3.5]non-7-yl}methyl)-1H-indole-2-carbonitrile] | 75 to 500 nM | – | – | –
